Experimental findings from patent US5610174A, “Use of α1A -selective adrenoceptor agonists for the treatment of urinary incontinence” (priority 1995, dated 1997) are described below.

The target in one experiment is T1, human α1B adrenoceptor (Homo sapiens, UniProt P35368).
T1 construct: The entire coding region of the α1B receptor (1563 bp); expressed in transfected cells
T1 sequence (P35368 1-520): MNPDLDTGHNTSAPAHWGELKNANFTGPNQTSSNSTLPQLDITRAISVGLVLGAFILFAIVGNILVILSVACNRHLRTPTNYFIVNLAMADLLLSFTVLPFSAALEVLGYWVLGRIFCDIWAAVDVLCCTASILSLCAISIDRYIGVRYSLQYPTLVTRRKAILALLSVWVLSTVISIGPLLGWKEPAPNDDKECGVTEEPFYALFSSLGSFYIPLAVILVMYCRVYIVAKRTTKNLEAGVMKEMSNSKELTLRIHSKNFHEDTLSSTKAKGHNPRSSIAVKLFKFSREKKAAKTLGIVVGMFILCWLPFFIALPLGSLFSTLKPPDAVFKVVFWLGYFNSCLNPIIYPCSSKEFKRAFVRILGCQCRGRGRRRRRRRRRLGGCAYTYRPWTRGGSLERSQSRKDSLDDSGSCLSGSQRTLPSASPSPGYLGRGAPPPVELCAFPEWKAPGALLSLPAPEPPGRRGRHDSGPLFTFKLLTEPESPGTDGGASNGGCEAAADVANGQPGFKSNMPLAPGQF
Put plainly: Phosphoinositide accumulation in cells expressing α1B. In kind it is cell-based. The following applies: for Emax: read-out: intrinsic activity (i.a.) α1B; for stimulation of inositol phosphate production, α1B: result in words. The method, then:
(§1) α1 -Adrenoceptor-Mediated Phosphoinositide Accumulation in Cultured Cell Lines
(§2) The agonist activity of test compounds was assayed by measuring their ability to generate phosphoinositide production in cells stably transfected with each of the three cloned human α1 -adrenoceptor subtypes. Cells were plated in 96-well plates and grown to confluence. The day before the assay the growth medium was changed to 100 μl of medium containing 1% serum and 0.5 μCi [^3 H] myo-inositol, and the plates were incubated overnight in a CO2 incubator (5% CO2 at 37° C.). Immediately before the assay, the medium was removed and replaced by 200 μl of PBS containing 10 mM LiCl, and the cells were equilibrated with the new medium for 20 min. During this interval cells were also equilibrated with the antagonist, added as 10 μl aliquot of a 20-fold concentrated solution in PBS.
(§3) The [^3 H] inositol-phosphate (IP) accumulation was started by adding 10 μl of a solution containing the agonist. To the first well 10 μl were added to measure basal accumulation, and 11 different concentrations of agonist were assayed in the following 11 wells of each plate row. All assays were performed in duplicate by repeating the same additions in two consecutive plate rows. The plates were incubated in a CO2 incubator for 1 hr. The reaction was terminated by adding 15 μl of 50% (v/v) trichloroacetic acid (TCA), followed by a 40 min incubation at 4° C.
(§4) After neutralizing TCA with 40 μl of 1 M Tris, the content of the wells was transferred to a Multiscreen HV filter plate (Millipore) containing Dowex AG1-X8 (200-400 mesh, formate form). The filter plates were prepared adding 200 μl of Dowex AG1-X8 suspension (50% v/v, water:resin) to each well. The filter plates were placed on a vacuum manifold to wash or eluted the resin bed. Each well was washed 2 times with 200 μl of water, followed by 2×200 μ of 5 mM sodium tetraborate/60 mM ammonium formate. The [3H] IPs were eluted into empty 96-well plates with 200 μl of 1.2 M ammonium formate/0.1 formic acid. The content of the wells was added to 3 mls of scintillation cocktail, and the radioactivity was determined by liquid scintillation counting.

A further experiment concerns the target T2, human α1A adrenoceptor (Homo sapiens, UniProt P25100).
T2 sequence (P25100 1-572): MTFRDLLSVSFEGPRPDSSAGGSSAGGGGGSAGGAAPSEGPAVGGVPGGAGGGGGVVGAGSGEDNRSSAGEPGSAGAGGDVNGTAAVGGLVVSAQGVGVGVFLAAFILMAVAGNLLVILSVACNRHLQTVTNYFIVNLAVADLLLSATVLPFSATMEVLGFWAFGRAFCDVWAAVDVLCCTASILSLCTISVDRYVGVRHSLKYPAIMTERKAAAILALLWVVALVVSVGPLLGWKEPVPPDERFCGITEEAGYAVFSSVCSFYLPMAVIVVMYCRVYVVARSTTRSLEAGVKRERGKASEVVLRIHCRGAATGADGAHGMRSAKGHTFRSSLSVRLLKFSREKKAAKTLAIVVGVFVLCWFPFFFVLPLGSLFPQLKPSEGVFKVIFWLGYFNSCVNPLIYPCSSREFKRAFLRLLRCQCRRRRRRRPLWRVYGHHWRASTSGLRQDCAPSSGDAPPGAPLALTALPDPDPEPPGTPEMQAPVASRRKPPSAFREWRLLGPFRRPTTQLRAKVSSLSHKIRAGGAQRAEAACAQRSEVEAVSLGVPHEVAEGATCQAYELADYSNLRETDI
Nature of the experiment: cell-based. Format: cell-based. The note with it: for Emax: read-out: intrinsic activity (i.a.) α1A; for stimulation of inositol phosphate production, α1A: result in words. The method, then:
as §1, §2, §3, §4

The target in a further experiment is T3, human α1C adrenoceptor (Homo sapiens, UniProt P35348).
T3 sequence (P35348 1-466): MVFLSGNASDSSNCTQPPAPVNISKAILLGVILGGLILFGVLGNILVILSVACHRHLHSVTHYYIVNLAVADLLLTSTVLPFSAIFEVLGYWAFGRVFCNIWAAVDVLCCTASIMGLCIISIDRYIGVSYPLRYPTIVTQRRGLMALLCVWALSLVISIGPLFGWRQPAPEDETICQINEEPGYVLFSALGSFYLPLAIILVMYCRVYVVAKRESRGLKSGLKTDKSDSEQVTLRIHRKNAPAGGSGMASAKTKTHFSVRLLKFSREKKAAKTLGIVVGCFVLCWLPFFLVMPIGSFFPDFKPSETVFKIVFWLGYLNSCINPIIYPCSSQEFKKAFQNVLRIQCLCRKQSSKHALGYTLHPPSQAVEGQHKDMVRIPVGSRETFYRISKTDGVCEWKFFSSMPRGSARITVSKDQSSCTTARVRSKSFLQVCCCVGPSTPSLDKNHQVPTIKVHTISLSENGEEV
Nature of the experiment: biochemical. Format: binding. The procedure:
These cell lines were prepared by transfecting the cloned cDNA or cloned genomic DNA or constructs containing both genomic DNA and cDNA encoding the human α-adrenoceptors as follows:
The construct involved ligating three partial overlapping fragments: a 5' 0.6 kb HincII genomic clone, a central 1.8 EcoRI hippocampal cDNA clone, and a 3' 0.6 Kb PstI genomic clone. The hippocampal cDNA fragment overlaps with the 5' and 3' genomic clones so that the HincII and PstI sites at the 5' and 3' ends of the cDNA clone, respectively, were utilized for ligation. This full-length clone was cloned into the KpnI site of the expression vector, using the 5' and 3' KpnI sites of the fragment, derived from vector (i.e., pBluescript) and 3'-untranslated sequences, respectively. Stable cell lines were obtained as described above.
Transfected cells from culture flasks were scraped into 5 ml of 5 mM Tris-HCl, 5 mM EDTA, pH 7.5, and lysed by sonication. The cell lysates were centrifuged at 1000 rpm. for 5 min at 4° C., and the supernatant was centrifuged at 30,000 ×g for 20 min at 4° C. The pellet was suspended in 50 mM Tris-HCl , 1 mM MgCl2, and 0.1% ascorbic acid at pH 7.5. […] The reaction was stopped by filtration through GF/B filters using a cell harvester.

Where [1] appears, read: relative to reference full agonist (e.g., norepinephrine = unity).
Setting [2] is: agonist, phosphoinositide accumulation, read-out: pEC50 α1A (converted).

Where two headings read alike, the source gives them in different places. Bounds are passed on as bounds.

Regarding `CS(=O)(=O)Nc1c(O)ccc2c1CCCC2C1=NCCN1` (racemic) [Compound A-61603, (±)-N-[5-(4,5-Dihydro-1H-imidazol-2-yl)-2-hydroxy-5,6,7,8-tetra-hydronaphthalen-1-yl]methanesulfonamide], the EC50 on human α1B adrenoceptor is 39.8 µM; at human α1A adrenoceptor (setting [2]) it was 25.1 µM. The Emax at human α1B adrenoceptor (setting [1]) and at human α1A adrenoceptor (setting [1]) was 10% each time. Also, on human α1B adrenoceptor, the “stimulation of inositol phosphate production, α1B” value was “virtually inactive”. Further, the “stimulation of inositol phosphate production, α1A” value on human α1A adrenoceptor is “virtually inactive”.
As to `COc1ccc(OC)c(C(O)CN)c1` (racemic) [ST-1059, (±)-2-Amino-1-(2, 5 dimethoxyphenyl) ethanol], on human α1B adrenoceptor, the EC50 was 6.31 µM and the Emax amounted to 10%. Besides, at human α1A adrenoceptor, the EC50 is 1.58 µM and the Emax was 10%. Also, on human α1C adrenoceptor, the Ki was 7.94 µM.
In the case of `COc1ccc(SC)c2c1C[C@@H]1[C@@H](C2)OCCN1C` (relative stereo) [SDZ NVI-085, (±)-trans-4-Methyl-6-methoxy-9-thiomethoxy-3,4,4a, 5,10,10a-hexahydro-2H-naphtho[2,3-b][1,4]oxazine], the EC50 at human α1B adrenoceptor (agonist, phosphoinositide accumulation, read-out: pEC50 α1B (converted)) is more than 100 µM; at human α1A adrenoceptor (setting [2]), more than 100 µM. Further, the Emax on human α1B adrenoceptor and at human α1A adrenoceptor was 0% each time. The Ki at human α1C adrenoceptor (Table 3, agonists, read-out: pKi α1C (converted)) is 1.26 µM.
Turning to `CN[C@@H](C)[C@H](O)c1ccccc1` [(-)-ephedrine], the EC50 at human α1B adrenoceptor and at human α1A adrenoceptor was 100 µM in each case. In addition, the Emax on human α1B adrenoceptor is 20%; on human α1A adrenoceptor, 10%. Moreover, the Ki at human α1C adrenoceptor was 25.1 µM.
As for `C[C@H](N)[C@H](O)c1ccccc1` [(-)-norephedrine], the EC50 at human α1B adrenoceptor is 31.6 µM; on human α1A adrenoceptor, 15.8 µM. The Emax at human α1B adrenoceptor was found to be 0%; on human α1A adrenoceptor, 30%. The Ki on human α1C adrenoceptor is 15.8 µM.
With `CNC[C@H](O)c1cccc(O)c1` [(-)-phenylephrine], the results for the Emax at human α1B adrenoceptor (setting [1]) and on human α1A adrenoceptor (setting [1]) were 90% and 70%, respectively.
In the case of `COc1cc2c(cc1OC)CN(c1cc(N)c3cc(OC)c(OC)cc3n1)CC2` [Abanoquil, 2-(6,7-Dimethoxy-3,4-dihydro-1H-isoquinolin-2-yl)-6,7-dimethoxyquinolin-4-ylamine hemifumarate hydrate], the “pKI (antagonist affinity, 3H-prazosin binding) hα1C” value on human α1C adrenoceptor (Table 2, antagonists, versus 3H-prazosin) was 10.4.
For the molecule `COc1ccccc1N1CCN(CCCNc2c(C)c(=O)n(C)c(=O)n2C)CC1` [Compound 5-MU], the Ki at human α1C adrenoceptor (Table 2, antagonists, versus 3H-prazosin, read-out: pKI (antagonist affinity, 3H-prazosin binding) hα1C (converted)) was 0.002 µM.
Regarding `CNCCc1ccc(O)c(NS(C)(=O)=O)c1` [SK&F 102652], at human α1B adrenoceptor, the Emax is 10% and the “stimulation of inositol phosphate production, α1B” value was “virtually inactive”. Further, on human α1A adrenoceptor, the Emax was determined as 10% and the “stimulation of inositol phosphate production, α1A” value is “virtually inactive”.
